In patent US12018011B2, “Macrocyclic compounds and compositions, and methods of preparing and using the same” (Kura Oncology, Inc., priority 2021, dated 2024):

Biological target: T1, Recombinant human farnesyl transferase (FTase) (Homo sapiens, UniProt P49356)
T1 construct: purchased Crelux (Martinsried, Germany)
Assay: FTase fluorescence assay (farnesylation of dansyl-GCVLS peptide)
Type: biochemical
Settings: recombinant human FTase 2.5 nM, Dansyl-GCVLS 85 nM, FPP 30 nM, 30° C., 50 minutes
Source text: T24/83 cell line was purchased from the European Collection of Authenticated Cell Cultures (Salisbury, UK). Recombinant human farnesyl transferase (FTase) and geranylgeranyl transferase type-1 (GGTase) were obtained from Crelux (Martinsried, Germany). Dansyl labelled GCVLS peptide was purchased from Bachem (Torrance, CA), and Dansyl labelled GCVLL peptide was purchased from Bio Synthesis (Lewisville, TX). Farnesyl Pyrophosphate (FPP) and Geranylgeranyl pyrophosphate (GGPP) were purchased from Cayman (Ann Arbor, MI).
Specific biochemical activity of the compounds disclosed herein as FTase inhibitors was determined by measuring the ability of the compounds to block the farnesylation by recombinant FTase of fluorescent (i.e., dansyl-labeled) test substrates derived from the CAAX box of farnesylated proteins, such as the peptide GCVLS.
The IC50 value of the compounds disclosed herein as inhibitors of Ftase and/or GGTase, was determined by measuring the concentration (provided in nM) necessary to achieve inhibition of enzyme activity by 50% (IC50). […] Compounds having a low IC50 value against FTase, for example an IC50 (FTase)<100 nM, such as an IC50 (FTase)<10 nM, are preferred. Compounds having a low IC50 value against FTase and a high IC50 value against GGTase, for example an IC50 (FTase)<100 nM, such as an IC50 (FTase)<10 nM, and an IC50 (GGTase)>100 nM, are potent and selective inhibitors of FTase, and are particularly preferred.
The inhibition activities of the compounds disclosed herein against Ftase and GGTase were measured in the respective fluorescence assays as follows:
For the FTase assay, recombinant human FTase (2.5 nM), Dansyl labelled GCVLS peptide (85 nM), FPP (30 nM) and inhibitor were mixed in assay buffer (50 mM Tris, pH 7.5, 10 mM magnesium chloride, 10 μM zinc chloride, 0.08% CHAPS, 5 mM dithiothreitol) and incubated in a total volume of 20 μL at 30° C. for 50 minutes.
For both the FTase assay and GGTase assay, fluorescence intensity was detected (excitation at 340 nm and emission at 486 nm) using EnVision (PerkinElmer; Waltham, MA), IC50 determinations were performed using a sigmoidal dose-response model with Xlfit software (IDBS, Inc.; Boston, MA), and tipifarnib was used as a positive control. All the assay plates for each assay passed the QC criteria (S/B, Z factor).

Row | SMILES | IC50
1 | Cn1cncc1[C@]1(O)c2ccc(C#N)c(c2)OCCc2cccc(c2)-c2cc(=O)n(C)c3ccc1cc23 (racemic) [(R)-36, (R)-3-hydroxy-2^1-methyl-3-(1-methyl-1H-imidazol-5-yl)-2^2-oxo-2^1,2^2-dihydro-5-oxa-2(4,6)-quinolina-1,4(1,3)-dibenzenacycloheptaphane-4^4-carbonitrile] | > 100 nM
2 | Cn1cncc1[C@]1(N)c2ccc(C#N)c(c2)COc2cccc(c2)-c2nccc3ccc1cc23 [(R)-86, (R)-3-amino-3-(1-methyl-1H-imidazol-5-yl)-6-oxa-2(1,7)-isoquinolina-1,4(1,3)-dibenzenacyclohexaphane-4^4-carbonitrile] | > 100 nM
3 | Cn1cnnc1[C@]1(N)c2ccc(C#N)c(c2)OCCc2cccc(c2)-c2cc(=O)n(C)c3ccc1cc23 (racemic) [(R)-39, (R)-3-amino-21-methyl-3-(4-methyl-4H-1,2,4-triazol-3-yl)-2^2-oxo-2^1,2^2-dihydro-5-oxa-2(4,6)-quinolina-1,4(1,3)-dibenzenacycloheptaphane-4^4-carbonitrile] | > 100 nM
4 | Cn1cncc1[C@]1(O)c2ccc(Cl)c(c2)OCCc2cccc(c2)-c2cc(=O)[nH]c3ccc1cc23 (racemic) [(R)-25, (R)-4^4-chloro-3-hydroxy-3-(1-methyl-1H-imidazol-5-yl)-2^1,2^2-dihydro-5-oxa-2(4,6)-quinolina-1,4(1,3)-dibenzenacycloheptaphan-2^2-one] | > 100 nM
5 | Cn1cncc1C1(N)c2ccc(Br)c(c2)COc2cccc(c2)-c2cc(OC3COC3)nc3ccc1cc23 (stereo not drawn) [Compound 75, 4^4-bromo-3-(1-methyl-1H-imidazol-5-yl)-2^2-(oxetan-3-yloxy)-6-oxa-2(4,6)-quinolina-1,4(1,3)-dibenzenacyclohexaphan-3-amine] | > 100 nM
6 | Cn1cnnc1[C@]1(N)c2ccc(Cl)c(c2)OCCc2cccc(c2)-c2cc(=O)n(C3CC3)c3ccc1cc23 (racemic) [(R)-35, (R)-3-amino-4^4-chloro-2^1-cyclopropyl-3-(4-methyl-4H-1,2,4-triazol-3-yl)-2^1,2^2-dihydro-5-oxa-2(4,6)-quinolina-1,4(1,3)-dibenzenacycloheptaphan-2^2-one] | > 100 nM
7 | Cn1cncc1[C@]1(O)c2ccc(Cl)c(c2)OCCc2cccc(c2)-c2cc(=O)n(C3CC3)c3ccc1cc23 (racemic) [(R)-29, (R)-4^4-chloro-2^1-cyclopropyl-3-hydroxy-3-(1-methyl-1H-imidazol-5-yl)-2^1,2^2-dihydro-5-oxa-2(4,6)-quinolina-1,4(1,3)-dibenzenacycloheptaphan-2^2-one] | > 100 nM
8 | [2H]C([2H])([2H])n1c(=O)cc2c3cc(ccc31)[C@](N)(c1cncn1C)c1ccc(C#N)c(c1)COc1cccc-2c1 (racemic) [(R)-56, (R)-3-amino-2^1-(methyl-d3)-3-(1-methyl-1H-imidazol-5-yl)-2^2-oxo-2^1,2^2-dihydro-6-oxa-2(4,6)-quinolina-1,4(1,3)-dibenzenacyclohexaphane-4^4-carbonitrile] | > 100 nM
9 | [2H]C([2H])([2H])n1c(=O)cc2c3cc(ccc31)[C@](O)(c1cncn1C)c1ccc(Cl)c(c1)OCCc1cccc-2c1 (racemic) [(R)-28, (R)-4^4-chloro-3-hydroxy-2^1-(methyl-d3)-3-(1-methyl-1H-imidazol-5-yl)-2^1,2^2-dihydro-5-oxa-2(4,6)-quinolina-1,4(1,3)-dibenzenacycloheptaphan-2^2-one] | > 100 nM

The remaining lines, values ahead:

Row | IC50 | SMILES
10 | 10 to 100 nM | Cn1cncc1C1(O)c2ccc(C#N)c(c2)COc2cccc(c2)-c2nccc3ccc1cc23 (stereo not drawn) [Compound 85, 3-hydroxy-3-(1-methyl-1H-imidazol-5-yl)-6-oxa-2(1,7)-isoquinolina-1,4(1,3)-dibenzenacyclohexaphane-4^4-carbonitrile]
11 | 10 to 100 nM | [2H]C([2H])([2H])n1c(=O)cc2c3cc(ccc31)[C@@H](n1cncc1C)c1ccc(Cl)c(c1)COc1cccc-2c1 [(R)-76, (R)-4^4-chloro-2^1-(methyl-d3)-3-(5-methyl-1H-imidazol-1-yl)-2^1,2^2-dihydro-6-oxa-2(4,6)-quinolina-1,4(1,3)-dibenzenacyclohexaphan-2^2-one]
12 | > 100 nM | Cc1cncn1[C@@H]1c2ccc(C#N)c(c2)COc2cccc(c2)-c2cc(C#N)nc3ccc1cc23 [(S)-91, (S)-3-(5-methyl-1H-imidazol-1-yl)-6-oxa-2(4,6)-quinolina-1,4(1,3)-dibenzenacyclohexaphane-2^2,4^4-dicarbonitrile]
13 | ≤ 10 nM | Cn1cncc1[C@@]1(N)c2ccc(C#N)c(c2)COc2cccc(c2)-c2cc(OC3COC3)nc3ccc1cc23 [(S)-89, (S)-3-amino-3-(1-methyl-1H-imidazol-5-yl)-2^2-(oxetan-3-yloxy)-6-oxa-2(4,6)-quinolina-1,4(1,3)-dibenzenacyclohexaphane-4^4-carbonitrile]
14 | ≤ 10 nM | COc1cc2c3cc(cnc3c1)C(O)(c1cncn1C)c1ccc(C#N)c(c1)COc1cccc-2c1 (stereo not drawn) [Compound 88, 3-hydroxy-2^7-methoxy-3-(1-methyl-1H-imidazol-5-yl)-6-oxa-2(5,3)-quinolina-1,4(1,3)-dibenzenacyclohexaphane-4^4-carbonitrile]
15 | > 100 nM | Cn1cncc1[C@]1(N)c2ccc(Cl)c(c2)COc2cccc(c2)-c2cc(=O)n(C)c3ccc1cc23 (racemic) [(R)-46, (R)-3-amino-4^4-chloro-2^1-methyl-3-(1-methyl-1H-imidazol-5-yl)-2^1,2^2-dihydro-6-oxa-2(4,6)-quinolina-1,4(1,3)-dibenzenacyclohexaphan-2^2-one]
16 | 10 to 100 nM | [2H]C([2H])([2H])n1cncc1[C@]1(N)c2ccc(C#N)c(c2)COc2cccc(c2)-c2cc(C#N)nc3ccc1cc23 (racemic) [(R)-70, (R)-3-amino-3-(1-(methyl-d3)-1H-imidazol-5-yl)-6-oxa-2(4,6)-quinolina-1,4(1,3)-dibenzenacyclohexaphane-2^2,4^4-dicarbonitrile]
17 | 10 to 100 nM | [2H]C([2H])([2H])n1c(=O)cc2c3cc(ccc31)[C@H](n1cnc(C)n1)c1ccc(Cl)c(c1)COc1cccc-2c1 [(S)-080, (S)-4^4-chloro-2^1-(methyl-d3)-3-(3-methyl-1H-1,2,4-triazol-1-yl)-2^1,2^2-dihydro-6-oxa-2(4,6)-quinolina-1,4(1,3)-dibenzenacyclohexaphan-2^2-one]
18 | ≤ 10 nM | Cn1cncc1C1(O)c2ccc(Br)c(c2)COc2cccc(c2)-c2cncc3ccc1cc23 (stereo not drawn) [Compound 83, 4^4-bromo-3-(1-methyl-1H-imidazol-5-yl)-6-oxa-2(4,6)-isoquinolina-1,4(1,3)-dibenzenacyclohexaphan-3-ol]
19 | ≤ 10 nM | Cn1cncc1C1(N)c2ccc(Br)c(c2)COc2cccc(c2)-c2nc(N)nc3ccc1cc23 (stereo not drawn) [Compound 82, 4^4-bromo-3-(1-methyl-1H-imidazol-5-yl)-6-oxa-2(4,6)-quinazolina-1,4(1,3)-dibenzenacyclohexaphane-2^2,3-diamine]
20 | 10 to 100 nM | [2H]C([2H])([2H])n1c(=O)cc2c3cc(ccc31)[C@@H](n1cnc(C)c1)c1ccc(Cl)c(c1)COc1cccc-2c1 [(R)-77, (R)-4^4-chloro-2^1-(methyl-d3)-3-(4-methyl-1H-imidazol-1-yl)-2^1,2^2-dihydro-6-oxa-2(4,6)-quinolina-1,4(1,3)-dibenzenacyclohexaphan-2^2-one]
21 | 10 to 100 nM | Cn1cncc1C1(O)c2ccc(Br)c(c2)COc2cccc(c2)-c2nccc3ccc1cc23 (stereo not drawn) [Compound 84, 4^4-bromo-3-(1-methyl-1H-imidazol-5-yl)-6-oxa-2(1,7)-isoquinolina-1,4(1,3)-dibenzenacyclohexaphan-3-ol]
